Some test systems named below: HCT-15 colon; SNB-75 CNS; UACC-62 melanoma; HT29 colon; SF-539 CNS; OVCAR-8 ovarian; K-562 leukemia; SF-268 CNS; SR leukemia; ACHN renal; M14 melanoma; NCI-H522 lung; SK-OV-3 ovarian; OVCAR-5 ovarian; MDA-MB-231 breast; BT-549 breast; T-47D breast.
Assay in all cases: growth of human tumour cells (NCI), 48 h

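1) Cells in 96-well plates. 2) Compound, 48 h, 5 concentrations. 3) Linear interpolation between surrounding doses. 4) Unreached endpoint = highest concentration. At the TGI there is no net growth.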

On to `N#Cc1cccc2c1Nc1ccccc1S2`, for which the TGI in the assay on HCT-15 colon, with SNB-75 CNS, with UACC-62 melanoma, in the assay with HT29 colon, in the assay on SF-539 CNS and with OVCAR-8 ovarian was greater than 100 µM in each case. For the same molecule, the TGI in the assay on K-562 leukemia, in the assay on SF-268 CNS, in the assay with SR leukemia, with ACHN renal, in the assay on M14 melanoma and with NCI-H522 lung was greater than 100 µM throughout. Further, the TGI in the assay on SK-OV-3 ovarian and in the assay with OVCAR-5 ovarian was greater than 100 µM in each case.
Regarding `COP(=O)(OC)C(=O)N1N(c2ccc([N+](=O)[O-])cc2)C(=O)C(C)NC1(NNc1ccc([N+](=O)[O-])cc1)P(=O)(OC)OC` (stereo not given), the TGI in the assay with HCT-15 colon, in the assay on SNB-75 CNS, with UACC-62 melanoma, with SF-539 CNS, with OVCAR-8 ovarian and in the assay on K-562 leukemia was greater than 100 µM in each case. In addition, the TGI in the assay with SF-268 CNS, with SR leukemia, in the assay on ACHN renal, with M14 melanoma, with NCI-H522 lung and in the assay on OVCAR-5 ovarian was greater than 100 µM in each case.
On to `O=C(c1ccccc1)c1c(CC(O)c2ccccn2)n(C(=O)c2ccccc2)c2ccccc12` (stereo not given), for which the TGI amounted to 88.1 µM in the assay with HCT-15 colon; 43.3 µM in the assay with SNB-75 CNS; 32.5 µM in the assay with UACC-62 melanoma; 30.1 µM in the assay on HT29 colon; 31.5 µM in the assay on SF-539 CNS; 95.8 µM in the assay with OVCAR-8 ovarian. The TGI is greater than 100 µM in the assay on K-562 leukemia; greater than 100 µM in the assay on SF-268 CNS; 50 µM with SR leukemia; 96.6 µM with ACHN renal; 38.1 µM with M14 melanoma; 47.2 µM in the assay with NCI-H522 lung. This molecule also gave a TGI in the assay on OVCAR-5 ovarian of 52.7 µM.
As to `NC(Cc1ccc(OCc2ccccc2)cn1)C(=O)O` (stereo not given), the TGI with MDA-MB-231 breast, in the assay on BT-549 breast, with HCT-15 colon, in the assay with HT29 colon, in the assay with SF-539 CNS and in the assay with OVCAR-8 ovarian was greater than 100 µM throughout. Also, the TGI in the assay on K-562 leukemia, with SF-268 CNS, in the assay with SR leukemia, with ACHN renal, in the assay with NCI-H522 lung and with OVCAR-5 ovarian was greater than 100 µM in each case.
On to `Cc1ccn2c(=O)cc(CN3CCOCC3)nc2c1`, for which the TGI in the assay on MDA-MB-231 breast, in the assay with BT-549 breast, in the assay with HCT-15 colon, in the assay on SNB-75 CNS, in the assay with UACC-62 melanoma and with HT29 colon was greater than 100 µM throughout. Moreover, the TGI in the assay on SF-539 CNS, with OVCAR-8 ovarian, with K-562 leukemia, in the assay with SF-268 CNS, in the assay on SR leukemia and with ACHN renal was greater than 100 µM throughout. The TGI in the assay with M14 melanoma, with NCI-H522 lung, in the assay with SK-OV-3 ovarian and with OVCAR-5 ovarian was greater than 100 µM throughout.
Consider `COc1ccc(C2=C(Cl)c3cc(OC)c(OC)cc3C2OC)cc1OC` (stereo not given), for which the TGI in the assay with HCT-15 colon, with SNB-75 CNS, with UACC-62 melanoma, with HT29 colon, in the assay on SF-539 CNS and with OVCAR-8 ovarian was greater than 100 µM in each case. Besides, the TGI in the assay with K-562 leukemia is 52.7 µM; with SF-268 CNS, greater than 100 µM; in the assay on ACHN renal it was greater than 100 µM; in the assay with M14 melanoma, greater than 100 µM; in the assay with NCI-H522 lung, greater than 100 µM; in the assay with OVCAR-5 ovarian, greater than 100 µM.
For `CC(Nc1ncc2c(n1)-c1ccccc1OC2)C(=O)O` (stereo not given), the TGI in the assay on MDA-MB-231 breast, in the assay with HCT-15 colon, with SNB-75 CNS, in the assay on UACC-62 melanoma, with HT29 colon and with SF-539 CNS was greater than 100 µM each time. The TGI in the assay on OVCAR-8 ovarian, in the assay on K-562 leukemia, in the assay on SF-268 CNS, with SR leukemia, in the assay with ACHN renal and in the assay on M14 melanoma was greater than 100 µM each time. The TGI in the assay with SK-OV-3 ovarian and with OVCAR-5 ovarian was greater than 100 µM each time.
As for `CC(=O)Nc1ccc(NCC(=O)Nn2cnc3ccc(S(=O)(=O)Nc4ccc(NC(C)=O)cc4)cc3c2=O)cc1`, the TGI in the assay with MDA-MB-231 breast, with BT-549 breast, in the assay on HCT-15 colon, in the assay with SNB-75 CNS, with UACC-62 melanoma and with HT29 colon was greater than 100 µM each time. For the same molecule, the TGI with SF-539 CNS, in the assay on OVCAR-8 ovarian, in the assay with K-562 leukemia, with SF-268 CNS, in the assay on SR leukemia and in the assay on ACHN renal was greater than 100 µM each time. The TGI in the assay on M14 melanoma, with NCI-H522 lung, in the assay on SK-OV-3 ovarian and with OVCAR-5 ovarian was greater than 100 µM in each case.
For `CCN(CC)c1cccc2c1/C(=N/O)CCCC2`, the TGI with HCT-15 colon, in the assay with SNB-75 CNS, in the assay on UACC-62 melanoma, in the assay with HT29 colon, in the assay on OVCAR-8 ovarian and with K-562 leukemia was greater than 100 µM in each case. Also, the TGI with SF-268 CNS, in the assay with SR leukemia, in the assay with ACHN renal, in the assay with NCI-H522 lung and in the assay on SK-OV-3 ovarian was greater than 100 µM throughout.
On to `CC(C)(O)/C=C\P(=O)(O)O`, for which the TGI in the assay with HCT-15 colon, in the assay on SNB-75 CNS, in the assay on UACC-62 melanoma, in the assay on HT29 colon, in the assay with SF-539 CNS and in the assay on T-47D breast was greater than 100 µM in each case. Also, the TGI in the assay on OVCAR-8 ovarian, in the assay with K-562 leukemia, with SF-268 CNS, in the assay on SR leukemia, in the assay with ACHN renal and in the assay with M14 melanoma was greater than 100 µM each time. For the same molecule, the TGI in the assay on NCI-H522 lung, with SK-OV-3 ovarian and with OVCAR-5 ovarian was greater than 100 µM throughout.

These data come from PubChem BioAssay (NCI).
